The results in this text go back to US12275731B2, “Azaindole inhibitors of wild-type and mutant forms of LRRK2” (DANA-FARBER CANCER INSTITUTE, INC., priority 2018, dated 2025).

Test in all cases: KinomeScan profiling
Assay type in all cases: binding

One assay concerns the target T1, NEK5 (Homo sapiens, UniProt Q6P3R8).
T1 sequence (Q6P3R8 1-708): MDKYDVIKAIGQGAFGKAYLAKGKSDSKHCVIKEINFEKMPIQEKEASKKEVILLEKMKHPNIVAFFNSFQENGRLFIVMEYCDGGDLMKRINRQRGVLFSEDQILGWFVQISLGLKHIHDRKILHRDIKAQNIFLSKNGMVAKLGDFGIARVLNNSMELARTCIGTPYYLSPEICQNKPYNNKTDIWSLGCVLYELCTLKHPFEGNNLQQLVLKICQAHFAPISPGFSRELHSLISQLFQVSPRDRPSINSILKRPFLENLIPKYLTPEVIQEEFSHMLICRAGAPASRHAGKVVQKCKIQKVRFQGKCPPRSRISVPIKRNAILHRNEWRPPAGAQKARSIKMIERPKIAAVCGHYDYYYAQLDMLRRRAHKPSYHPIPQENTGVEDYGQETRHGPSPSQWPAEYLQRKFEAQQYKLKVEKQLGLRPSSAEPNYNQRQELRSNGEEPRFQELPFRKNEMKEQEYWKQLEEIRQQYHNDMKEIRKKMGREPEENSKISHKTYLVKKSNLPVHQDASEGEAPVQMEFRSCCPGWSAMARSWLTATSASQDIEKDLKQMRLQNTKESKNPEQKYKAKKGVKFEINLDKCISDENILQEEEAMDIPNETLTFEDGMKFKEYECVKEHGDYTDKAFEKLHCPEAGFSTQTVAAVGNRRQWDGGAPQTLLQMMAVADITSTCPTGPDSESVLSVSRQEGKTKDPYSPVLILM
The following applies: NEK5, 1 μM; read-out: % control. The gist of the method:
(§1)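 Percent-of-control values derive from RLU, calculated as (test − positive)/(negative − positive) × 100, where DMSO defines 100% and a positive control compound defines 0%. Each compound was tested at 1 μM in the 468-kinase panel; sub-35% readings indicate activity.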

The target of a further assay is T2, ERK8 (Homo sapiens, UniProt Q8TD08).
T2 sequence (Q8TD08 1-544): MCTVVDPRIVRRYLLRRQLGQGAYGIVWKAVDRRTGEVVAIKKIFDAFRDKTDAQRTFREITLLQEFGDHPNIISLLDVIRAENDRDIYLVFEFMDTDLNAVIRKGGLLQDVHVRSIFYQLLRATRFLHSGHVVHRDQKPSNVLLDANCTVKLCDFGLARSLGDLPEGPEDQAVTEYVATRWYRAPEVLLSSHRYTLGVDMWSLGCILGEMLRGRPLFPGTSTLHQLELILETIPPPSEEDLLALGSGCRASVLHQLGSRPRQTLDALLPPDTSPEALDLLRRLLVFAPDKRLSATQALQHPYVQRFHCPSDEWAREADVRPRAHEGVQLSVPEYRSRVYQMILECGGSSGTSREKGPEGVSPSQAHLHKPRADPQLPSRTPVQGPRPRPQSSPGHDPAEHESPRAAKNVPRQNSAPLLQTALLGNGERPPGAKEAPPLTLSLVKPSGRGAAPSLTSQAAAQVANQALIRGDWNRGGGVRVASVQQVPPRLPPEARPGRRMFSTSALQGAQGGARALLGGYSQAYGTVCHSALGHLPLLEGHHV
The following applies: ERK8, 1 μM; read-out: % control. An outline of the steps: as §1

A further assay concerns the target T3, LATS2 (Homo sapiens, UniProt Q9NRM7).
T3 sequence (Q9NRM7 1-1088): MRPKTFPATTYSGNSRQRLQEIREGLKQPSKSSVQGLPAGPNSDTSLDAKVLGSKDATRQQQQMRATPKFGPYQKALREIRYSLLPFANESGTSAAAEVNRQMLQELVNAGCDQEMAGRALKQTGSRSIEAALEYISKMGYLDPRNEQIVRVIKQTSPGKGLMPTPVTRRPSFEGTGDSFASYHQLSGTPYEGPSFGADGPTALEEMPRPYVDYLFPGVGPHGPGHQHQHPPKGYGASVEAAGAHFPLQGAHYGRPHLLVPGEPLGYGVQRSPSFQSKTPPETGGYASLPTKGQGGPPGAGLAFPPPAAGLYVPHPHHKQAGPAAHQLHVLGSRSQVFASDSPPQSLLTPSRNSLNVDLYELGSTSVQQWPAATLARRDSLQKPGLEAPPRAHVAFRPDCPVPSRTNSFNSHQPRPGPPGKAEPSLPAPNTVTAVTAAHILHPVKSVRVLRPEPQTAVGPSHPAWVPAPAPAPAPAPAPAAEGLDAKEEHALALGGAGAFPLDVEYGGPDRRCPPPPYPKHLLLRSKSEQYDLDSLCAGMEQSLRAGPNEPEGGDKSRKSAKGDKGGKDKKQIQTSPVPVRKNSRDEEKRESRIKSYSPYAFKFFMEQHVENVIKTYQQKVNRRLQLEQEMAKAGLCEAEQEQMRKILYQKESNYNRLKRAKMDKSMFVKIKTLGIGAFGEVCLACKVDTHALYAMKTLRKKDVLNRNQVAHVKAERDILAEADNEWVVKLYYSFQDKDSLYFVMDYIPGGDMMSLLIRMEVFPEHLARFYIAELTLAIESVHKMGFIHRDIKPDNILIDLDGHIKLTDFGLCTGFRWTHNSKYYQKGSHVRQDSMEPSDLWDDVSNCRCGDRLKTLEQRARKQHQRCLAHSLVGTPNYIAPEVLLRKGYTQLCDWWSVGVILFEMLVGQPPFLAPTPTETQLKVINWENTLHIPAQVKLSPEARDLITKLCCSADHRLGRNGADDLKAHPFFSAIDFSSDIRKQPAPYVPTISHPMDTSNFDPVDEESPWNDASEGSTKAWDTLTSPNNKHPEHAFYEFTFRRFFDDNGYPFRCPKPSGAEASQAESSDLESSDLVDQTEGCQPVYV
The following applies: LATS2, 1 μM; read-out: % control. The gist of the method:
as §1

The target of a further assay is RIPK2 (Homo sapiens, UniProt O43353). The settings on record: RIPK2, 1 μM; read-out: % control. The gist of the method:
as §1

Another assay has as its target EGFR(G719S) (Homo sapiens, UniProt P00533, G719S). The following applies: read-out: % control. An outline of the steps: as §1

RIPK2, sequence (O43353 whole entry): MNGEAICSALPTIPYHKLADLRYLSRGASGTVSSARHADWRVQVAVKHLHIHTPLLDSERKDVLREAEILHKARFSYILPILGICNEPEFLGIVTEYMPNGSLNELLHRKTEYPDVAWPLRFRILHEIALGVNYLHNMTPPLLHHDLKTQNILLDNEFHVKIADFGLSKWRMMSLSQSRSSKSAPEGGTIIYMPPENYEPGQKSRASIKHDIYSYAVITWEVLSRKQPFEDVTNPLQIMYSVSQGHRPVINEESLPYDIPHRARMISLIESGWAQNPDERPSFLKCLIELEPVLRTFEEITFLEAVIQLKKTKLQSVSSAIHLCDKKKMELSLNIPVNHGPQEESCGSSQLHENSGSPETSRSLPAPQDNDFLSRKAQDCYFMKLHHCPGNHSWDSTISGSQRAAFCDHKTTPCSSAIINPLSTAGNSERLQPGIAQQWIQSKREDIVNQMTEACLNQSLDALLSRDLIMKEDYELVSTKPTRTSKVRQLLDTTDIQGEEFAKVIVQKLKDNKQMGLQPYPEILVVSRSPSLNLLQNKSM
EGFR(G719S), sequence (P00533 25-1210 G719S): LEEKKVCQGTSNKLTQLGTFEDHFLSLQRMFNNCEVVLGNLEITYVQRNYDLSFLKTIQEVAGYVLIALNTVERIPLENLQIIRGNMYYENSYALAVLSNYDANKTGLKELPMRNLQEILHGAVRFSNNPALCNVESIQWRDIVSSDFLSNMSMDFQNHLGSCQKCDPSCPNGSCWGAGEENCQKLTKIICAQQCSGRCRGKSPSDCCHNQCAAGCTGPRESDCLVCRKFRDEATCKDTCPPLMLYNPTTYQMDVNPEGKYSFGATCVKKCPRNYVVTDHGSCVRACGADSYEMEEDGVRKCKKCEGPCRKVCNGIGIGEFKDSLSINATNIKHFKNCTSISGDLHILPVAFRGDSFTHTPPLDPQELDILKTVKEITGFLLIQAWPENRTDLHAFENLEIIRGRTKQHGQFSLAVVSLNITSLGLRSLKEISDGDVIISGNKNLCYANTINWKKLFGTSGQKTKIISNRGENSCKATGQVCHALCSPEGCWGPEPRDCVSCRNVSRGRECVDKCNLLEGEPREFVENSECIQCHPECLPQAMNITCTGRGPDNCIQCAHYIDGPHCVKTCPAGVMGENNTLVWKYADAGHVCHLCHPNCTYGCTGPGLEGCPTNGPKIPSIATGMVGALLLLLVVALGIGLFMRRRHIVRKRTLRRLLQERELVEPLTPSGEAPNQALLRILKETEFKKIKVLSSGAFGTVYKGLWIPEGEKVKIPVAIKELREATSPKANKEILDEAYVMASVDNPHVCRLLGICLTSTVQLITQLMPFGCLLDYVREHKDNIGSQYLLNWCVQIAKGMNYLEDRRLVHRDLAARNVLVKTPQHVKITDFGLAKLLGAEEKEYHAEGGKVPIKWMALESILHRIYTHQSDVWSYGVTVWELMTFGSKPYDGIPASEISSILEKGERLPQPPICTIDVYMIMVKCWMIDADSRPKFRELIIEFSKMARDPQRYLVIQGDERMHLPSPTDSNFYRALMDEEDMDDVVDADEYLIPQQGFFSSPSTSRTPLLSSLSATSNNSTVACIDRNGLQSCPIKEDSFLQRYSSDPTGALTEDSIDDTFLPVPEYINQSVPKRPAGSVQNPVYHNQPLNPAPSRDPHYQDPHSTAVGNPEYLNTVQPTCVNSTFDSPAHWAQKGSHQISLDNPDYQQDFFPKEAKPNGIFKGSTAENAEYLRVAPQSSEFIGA

Regarding `CNc1c(-c2ccc(C(=O)N3CCC(N4CCOCC4)CC3)cc2)cnc2[nH]cc(Cl)c12` [Compound 96, (4-(3-chloro-4-(methylamino)-1H-pyrrolo[2,3-b]pyridin-5-yl)phenyl)(4-morpholinopiperidin-1-yl)methanone], the remaining binding at 1 µM stood at 99% on NEK5; 100% on ERK8; 78% at LATS2; 99% at RIPK2; 100% on EGFR(G719S).

In the case of `O=C(c1ccc(-c2cnc3[nH]cc(Cl)c3c2NC2CCCC2)cc1)N1CCC(N2CCOCC2)CC1` [Compound 101, (4-(3-chloro-4-(cyclopentylamino)-1H-pyrrolo[2,3-b]pyridin-5-yl)phenyl)(4-morpholinopiperidin-1-yl)methanone], the remaining binding at 1 µM was determined as 99% at NEK5; 91% at ERK8; 82% on LATS2; 100% on RIPK2; 100% on EGFR(G719S).

With `CNc1c(-c2cnn([C@H]3CCN(C(C)=O)C[C@@H]3F)c2)cnc2[nH]cc(Cl)c12` [Compound 77, 1-((3S,4S)-4-(4-(3-chloro-4-(methylamino)-1H-pyrrolo[2,3-b]pyridin-5-yl)-1H-pyrazol-1-yl)-3-fluoropiperidin-1-yl)ethan-1-one], the remaining binding at 1 µM on NEK5 worked out at 79%; at ERK8 it was 92%; on LATS2, 86%; at RIPK2, 100%; on EGFR(G719S), 100%.
